# Laboratory results published in patent US10487092B2, “Pyrazolopyridinamines as MKNK1 and MKNK2 inhibitors” (BAYER PHARMA AKTIENGESELLSCHAFT, priority 2014, dated 2019).
# Biological target: human full-length MKNK1 (Homo sapiens (Human), UniProt Q9BUB5, T344D)
# Experiment: MKNK1 kinase high ATP assay (TR-FRET)
# Type: biochemical
# Conditions: high ATP (2 mM), 15 min preincubation with enzyme; read-out: MKNK1 IC50
# Summary of the method: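 GST-tagged full-length MKNK1 (aa 1–424, T344D; insect-cell expressed) preincubated 15 min with compound, then reacted 30 min at 22 °C with 2 mM ATP and 0.06 μM biotinylated peptide (final) in HEPES pH 7.5 buffer. Phosphopeptide detected by TR-FRET 665/620 ratio, normalized to no-inhibitor and no-enzyme controls.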
# Sequence of human full-length MKNK1 (Q9BUB5 other isoform, or with tags, fused parts or gaps T344D): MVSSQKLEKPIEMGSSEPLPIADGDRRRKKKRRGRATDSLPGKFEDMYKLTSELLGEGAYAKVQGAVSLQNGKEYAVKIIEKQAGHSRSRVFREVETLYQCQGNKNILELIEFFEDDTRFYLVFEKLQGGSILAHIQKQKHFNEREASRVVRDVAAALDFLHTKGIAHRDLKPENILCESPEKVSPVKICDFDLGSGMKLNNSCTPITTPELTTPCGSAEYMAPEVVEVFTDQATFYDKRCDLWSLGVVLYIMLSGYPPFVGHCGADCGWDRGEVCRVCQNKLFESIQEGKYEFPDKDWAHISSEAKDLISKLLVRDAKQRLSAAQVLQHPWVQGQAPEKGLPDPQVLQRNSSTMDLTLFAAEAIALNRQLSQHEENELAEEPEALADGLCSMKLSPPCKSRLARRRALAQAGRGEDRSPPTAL
row,Compound,IC50
1,"CNC(=O)[C@H]1CCc2c(sc3ncnc(Nc4cc5ccnn5cc4OC)c23)C1 [Example 78, (7S)-4-[(6-Methoxypyrazolo[1,5-a]pyridin-5-yl)amino]-N-methyl-5,6,7,8-tetrahydro[1]benzothieno[2,3-d]pyrimidine-7-carboxamide]",5 nM
2,"COc1cn2nccc2cc1Nc1ncnc2sc3c(c12)CC[C@H](C(=O)NCC(F)F)C3 [Example 79, (7S)—N-(2,2-Difluoroethyl)-4-[(6-methoxypyrazolo[1,5-a]pyridin-5-yl)amino]-5,6,7,8-tetrahydro[1]benzothieno[2,3-d]pyrimidine-7-carboxamide]",3 nM
3,"COc1cn2nccc2cc1Nc1ncnc2sc3c(c12)CC[C@H](C(=O)NCCC(F)(F)F)C3 [Example 80, (7S)-4-[(6-Methoxypyrazolo[1,5-a]pyridin-5-yl)amino]-N-(3,3,3-trifluoropropyl)-5,6,7,8-tetrahydro[1]benzothieno[2,3-d]pyrimidine-7-carboxamide]",3 nM
4,"COc1cn2nccc2cc1Nc1ncnc2sc3c(c12)CC[C@H](C(=O)NCC(C)(C)O)C3 [Example 81, (7S)—N-(2-Hydroxy-2-methylpropyl)-4-[(6-methoxypyrazolo[1,5-a]pyridin-5-yl)amino]-5,6,7,8-tetrahydro[1]benzothieno[2,3-d]pyrimidine-7-carboxamide]",2 nM
5,"COc1cn2nccc2cc1Nc1ncnc2sc3c(c12)CC[C@H](C(=O)NCCN(C)C)C3 [Example 82, (7S)—N-[2-(Dimethylamino)ethyl]-4-[(6-methoxypyrazolo[1,5-a]pyridin-5-yl)amino]-5,6,7,8-tetrahydro[1]benzothieno[2,3-d]pyrimidine-7-carboxamide]",3 nM
6,"COc1cn2nccc2cc1Nc1ncnc2sc3c(c12)CC[C@H](C(=O)NCCO)C3 [Example 83, (7S)—N-(2-Hydroxyethyl)-4-[(6-methoxypyrazolo[1,5-a]pyridin-5-yl)amino]-5,6,7,8-tetrahydro[1]benzothieno[2,3-d]pyrimidine-7-carboxamide]",3 nM
7,"COCCNC(=O)[C@H]1CCc2c(sc3ncnc(Nc4cc5ccnn5cc4OC)c23)C1 [Example 84, (7S)—N-(2-Methoxyethyl)-4-[(6-methoxypyrazolo[1,5-a]pyridin-5-yl)amino]-5,6,7,8-tetrahydro[1]benzothieno[2,3-d]pyrimidine-7-carboxamide]",3 nM
8,"COc1cn2nccc2cc1Nc1ncnc2sc3c(c12)CC[C@H](C(=O)NC(C)(C)C)C3 [Example 86, (7S)—N-tert-Butyl-4-[(6-methoxypyrazolo[1,5-a]pyridin-5-yl)amino]-5,6,7,8-tetrahydro[1]benzothieno[2,3-d]pyrimidine-7-carboxamide]",4 nM
9,"COc1cn2nccc2cc1Nc1ncnc2sc3c(c12)CC[C@H](C(=O)NC1(C)CCC1)C3 [Example 87, (7S)-4-[(6-Methoxypyrazolo[1,5-a]pyridin-5-yl)amino]-N-(1-methylcyclobutyl)-5,6,7,8-tetrahydro[1]benzothieno[2,3-d]pyrimidine-7-carboxamide]",4 nM
10,"COc1cn2nccc2cc1Nc1ncnc2sc3c(c12)CC[C@H](C(=O)Nc1ccc(F)cc1)C3 [Example 88, (7S)—N-(4-Fluorophenyl)-4-[(6-methoxypyrazolo[1,5-a]pyridin-5-yl)amino]-5,6,7,8-tetrahydro[1]benzothieno[2,3-d]pyrimidine-7-carboxamide]",8 nM
11,"COc1cn2nccc2cc1Nc1ncnc2sc3c(c12)CC[C@H](C(=O)Nc1cccc(Cl)c1)C3 [Example 89, (7S)—N-(3-Chlorophenyl)-4-[(6-methoxypyrazolo[1,5-a]pyridin-5-yl)amino]-5,6,7,8-tetrahydro[1]benzothieno[2,3-d]pyrimidine-7-carboxamide]",24 nM
12,"COc1cn2nccc2cc1Nc1ncnc2sc3c(c12)CC[C@H](C(=O)Nc1ccc(Cl)c(Cl)c1)C3 [Example 90, (7S)—N-(3,4-Dichlorophenyl)-4-[(6-methoxypyrazolo[1,5-a]pyridin-5-yl)amino]-5,6,7,8-tetrahydro[1]benzothieno[2,3-d]pyrimidine-7-carboxamide]",235 nM
13,"COc1cn2nccc2cc1Nc1ncnc2sc3c(c12)CC[C@H](C(=O)Nc1ccc(F)c(Cl)c1)C3 [Example 91, (7S)—N-(3-Chloro-4-fluorophenyl)-4-[(6-methoxypyrazolo[1,5-a]pyridin-5-yl)amino]-5,6,7,8-tetrahydro[1]benzothieno[2,3-d]pyrimidine-7-carboxamide]",48 nM
14,"COc1cn2nccc2cc1Nc1ncnc2sc3c(c12)CC[C@H](C(=O)Nc1cccc(F)c1)C3 [Example 92, (7S)—N-(3-Fluorophenyl)-4-[(6-methoxypyrazolo[1,5-a]pyridin-5-yl)amino]-5,6,7,8-tetrahydro[1]benzothieno[2,3-d]pyrimidine-7-carboxamide]",7 nM
15,"COc1cn2nccc2cc1Nc1ncnc2sc3c(c12)CC[C@H](C(=O)Nc1ccc2[nH]ccc2c1)C3 [Example 93, (7S)—N-(1H-Indol-5-yl)-4-[(6-methoxypyrazolo[1,5-a]pyridin-5-yl)amino]-5,6,7,8-tetrahydro[1]benzothieno[2,3-d]pyrimidine-7-carboxamide]",3 nM
16,"CCN(C)C(=O)[C@H]1CCc2c(sc3ncnc(Nc4cc5ccnn5cc4OC)c23)C1 [Example 94, (7S)—N-Ethyl-4-[(6-methoxypyrazolo[1,5-a]pyridin-5-yl)amino]-N-methyl-5,6,7,8-tetrahydro[1]benzothieno[2,3-d]pyrimidine-7-carboxamide]",1 nM
17,"COc1cn2nccc2cc1Nc1ncnc2sc3c(c12)CC[C@H](C(=O)N(C)CCC(F)(F)F)C3 [Example 96, (7S)-4-[(6-Methoxypyrazolo[1,5-a]pyridin-5-yl)amino]-N-methyl-N-(3,3,3-trifluoropropyl)-5,6,7,8-tetrahydro[1]benzothieno[2,3-d]pyrimidine-7-carboxamide]",7 nM
18,"CCCCN(C)C(=O)[C@H]1CCc2c(sc3ncnc(Nc4cc5ccnn5cc4OC)c23)C1 [Example 97, (7S)—N-Butyl-4-[(6-methoxypyrazolo[1,5-a]pyridin-5-yl)amino]-N-methyl-5,6,7,8-tetrahydro[1]benzothieno[2,3-d]pyrimidine-7-carboxamide]",1 nM
19,"COc1cn2nccc2cc1Nc1ncnc2sc3c(c12)CC[C@H](C(=O)N(C)CCCN(C)C)C3 [Example 99, (7S)—N-[3-(Dimethylamino)propyl]-4-[(6-methoxypyrazolo[1,5-a]pyridin-5-yl)amino]-N-methyl-5,6,7,8-tetrahydro[1]benzothieno[2,3-d]pyrimidine-7-carboxamide]",1 nM
20,"COc1cn2nccc2cc1Nc1ncnc2sc3c(c12)CC[C@H](C(=O)N(C)CCN(C)C)C3 [Example 101, (7S)—N-[2-(Dimethylamino)ethyl]-4-[(6-methoxypyrazolo[1,5-a]pyridin-5-yl)amino]-N-methyl-5,6,7,8-tetrahydro[1]benzothieno[2,3-d]pyrimidine-7-carboxamide]",2 nM
21,"COc1cn2nccc2cc1Nc1ncnc2sc3c(c12)CC[C@H](C(=O)N(C)C(C)C)C3 [Example 105, (7S)-4-[(6-Methoxypyrazolo[1,5-a]pyridin-5-yl)amino]-N-methyl-N-(propan-2-yl)-5,6,7,8-tetrahydro[1]benzothieno[2,3-d]pyrimidine-7-carboxamide]",2 nM
22,"COc1cn2nccc2cc1Nc1ncnc2sc3c(c12)CC[C@H](C(=O)N1CC[C@H](N(C)C)C1)C3 [Example 107, [(3S)-3-(Dimethylamino)pyrrolidin-1-yl](7S)-4-[(6-methoxypyrazolo[1,5-a]pyridin-5-yl)amino]-5,6,7,8-tetrahydro[1]benzothieno[2,3-d]pyrimidin-7-ylmethanone]",< 1 nM
23,"COc1cn2nccc2cc1Nc1ncnc2sc3c(c12)CC[C@H](C(=O)N1C[C@H](O)[C@@H](O)C1)C3 [Example 108, [(3S,4S)-3,4-Dihydroxypyrrolidin-1-yl](7S)-4-[(6-methoxypyrazolo[1,5-a]pyridin-5-yl)amino]-5,6,7,8-tetrahydro[1]benzothieno[2,3-d]pyrimidin-7-ylmethanone]",1 nM
24,"COc1cn2nccc2cc1Nc1ncnc2sc3c(c12)CC[C@H](C(=O)N1CCC(N(C)C)CC1)C3 [Example 109, [4-(Dimethylamino)piperidin-1-yl](7S)-4-[(6-methoxypyrazolo[1,5-a]pyridin-5-yl)amino]-5,6,7,8-tetrahydro[1]benzothieno[2,3-d]pyrimidin-7-ylmethanone]",1 nM
25,COc1cn2nccc2cc1Nc1ncnc2sc3c(c12)CC[C@H](C(=O)N1CCC(N(C)CCN(C)C)CC1)C3 [Example 110],< 1 nM
26,"COc1cn2nccc2cc1Nc1ncnc2sc3c(c12)CC[C@H](C(=O)N(CCO)CCCN(C)C)C3 [Example 111, (7S)—N-[3-(Dimethylamino)propyl]-N-(2-hydroxyethyl)-4-[(6-methoxypyrazolo[1,5-a]pyridin-5-yl)amino]-5,6,7,8-tetrahydro[1]benzothieno[2,3-d]pyrimidine-7-carboxamide]",3 nM
27,"COc1cn2nccc2cc1Nc1ncnc2sc3c(c12)CC[C@H](C(=O)N1C[C@@H](C)O[C@@H](C)C1)C3 [Example 112, [(2R,6S)-2,6-Dimethylmorpholin-4-yl](7S)-4-[(6-methoxypyrazolo[1,5-a]pyridin-5-yl)amino]-5,6,7,8-tetrahydro[1]benzothieno[2,3-d]pyrimidin-7-ylmethanone]",2 nM
28,"COc1cn2nccc2cc1Nc1ncnc2sc3c(c12)CC[C@H](C(=O)N1CCN(CCN(C)C)CC1)C3 [Example 114, 4-[2-(Dimethylamino)ethyl]piperazin-1-yl(7S)-4-[(6-methoxypyrazolo[1,5-a]pyridin-5-yl)amino]-5,6,7,8-tetrahydro[1]benzothieno[2,3-d]pyrimidin-7-ylmethanone]",< 1 nM
